Experiment [1] deals with T1, Serine/threonine-protein kinase Nek2 (Homo sapiens) (UniProt P51955).
T1 sequence (whole entry): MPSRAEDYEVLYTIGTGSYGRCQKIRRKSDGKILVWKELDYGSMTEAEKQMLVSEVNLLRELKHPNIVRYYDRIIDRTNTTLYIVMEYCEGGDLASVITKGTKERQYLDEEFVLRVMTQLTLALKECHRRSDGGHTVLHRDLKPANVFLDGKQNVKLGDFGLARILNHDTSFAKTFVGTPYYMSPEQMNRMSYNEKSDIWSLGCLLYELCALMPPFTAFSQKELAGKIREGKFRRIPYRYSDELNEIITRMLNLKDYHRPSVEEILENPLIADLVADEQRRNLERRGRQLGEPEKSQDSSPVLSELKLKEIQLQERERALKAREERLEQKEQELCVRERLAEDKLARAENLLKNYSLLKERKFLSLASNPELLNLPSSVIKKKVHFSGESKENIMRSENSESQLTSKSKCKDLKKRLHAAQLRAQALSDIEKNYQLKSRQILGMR
Put plainly: Percentage NEK2a activity remaining in the presence of 0.01uM inhibitor.

Experiment [2] concerns the target SRSF protein kinase 1 (Homo sapiens) (UniProt Q96SB4). Put plainly: Percentage SRPK1 activity remaining in the presence of 0.01uM inhibitor.
The target in experiment [3] is Mitogen-activated protein kinase 11 (Homo sapiens) (UniProt Q15759). Put plainly: Percentage p38beta activity remaining in the presence of 25uM inhibitor.
Experiment [4] addresses Calcium/calmodulin-dependent protein kinase kinase 2 (Homo sapiens) (UniProt Q96RR4). Put plainly: Percentage CaMKKbeta activity remaining in the presence of 25uM inhibitor.
In experiment [5] the target is Dual specificity mitogen-activated protein kinase kinase 1 (Homo sapiens) (UniProt Q02750). Put plainly: Percentage MKK1 activity remaining in the presence of 25uM inhibitor.
Dual specificity mitogen-activated protein kinase kinase 1 (Homo sapiens), sequence (Q02750 whole entry): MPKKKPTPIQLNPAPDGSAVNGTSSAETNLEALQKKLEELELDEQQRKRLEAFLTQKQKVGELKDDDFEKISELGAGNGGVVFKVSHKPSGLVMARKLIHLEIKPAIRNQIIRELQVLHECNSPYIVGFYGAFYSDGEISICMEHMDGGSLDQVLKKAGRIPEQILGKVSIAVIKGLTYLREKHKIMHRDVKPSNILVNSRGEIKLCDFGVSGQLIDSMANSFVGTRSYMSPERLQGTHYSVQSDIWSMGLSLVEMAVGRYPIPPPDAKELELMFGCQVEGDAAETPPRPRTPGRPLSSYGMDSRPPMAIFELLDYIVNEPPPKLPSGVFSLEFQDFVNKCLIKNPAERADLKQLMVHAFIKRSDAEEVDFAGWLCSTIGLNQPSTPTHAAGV
In experiment [6] the target is MAP kinase-activated protein kinase 3 (Homo sapiens) (UniProt Q16644). Put plainly: Percentage MAPKAPK3 activity remaining in the presence of […]uM inhibitor. The conditions noted are these: at 25 µM.
MAP kinase-activated protein kinase 3 (Homo sapiens), sequence (Q16644 whole entry, looked up): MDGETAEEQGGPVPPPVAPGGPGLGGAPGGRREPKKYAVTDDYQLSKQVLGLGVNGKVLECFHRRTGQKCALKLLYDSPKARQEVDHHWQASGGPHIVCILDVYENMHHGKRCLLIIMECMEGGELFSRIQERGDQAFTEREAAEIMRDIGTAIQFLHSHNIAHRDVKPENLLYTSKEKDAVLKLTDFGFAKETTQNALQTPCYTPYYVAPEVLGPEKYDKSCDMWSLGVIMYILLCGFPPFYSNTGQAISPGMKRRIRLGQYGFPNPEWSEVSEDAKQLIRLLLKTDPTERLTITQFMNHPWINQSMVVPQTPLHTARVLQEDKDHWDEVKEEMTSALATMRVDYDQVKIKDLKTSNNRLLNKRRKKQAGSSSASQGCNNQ
Experiment [7] addresses Serine/threonine-protein kinase PAK 6 (Homo sapiens) (UniProt Q9NQU5). Put plainly: Percentage PAK6 activity remaining in the presence of 25uM inhibitor.
The target of experiment [8] is Proto-oncogene tyrosine-protein kinase Src (Gallus gallus) (UniProt P00523). Put plainly: Percentage Src activity remaining in the presence of 25uM inhibitor.
Experiment [9] addresses T2, Serine/threonine-protein kinase D1 (Homo sapiens) (UniProt Q15139).
T2 sequence (whole entry): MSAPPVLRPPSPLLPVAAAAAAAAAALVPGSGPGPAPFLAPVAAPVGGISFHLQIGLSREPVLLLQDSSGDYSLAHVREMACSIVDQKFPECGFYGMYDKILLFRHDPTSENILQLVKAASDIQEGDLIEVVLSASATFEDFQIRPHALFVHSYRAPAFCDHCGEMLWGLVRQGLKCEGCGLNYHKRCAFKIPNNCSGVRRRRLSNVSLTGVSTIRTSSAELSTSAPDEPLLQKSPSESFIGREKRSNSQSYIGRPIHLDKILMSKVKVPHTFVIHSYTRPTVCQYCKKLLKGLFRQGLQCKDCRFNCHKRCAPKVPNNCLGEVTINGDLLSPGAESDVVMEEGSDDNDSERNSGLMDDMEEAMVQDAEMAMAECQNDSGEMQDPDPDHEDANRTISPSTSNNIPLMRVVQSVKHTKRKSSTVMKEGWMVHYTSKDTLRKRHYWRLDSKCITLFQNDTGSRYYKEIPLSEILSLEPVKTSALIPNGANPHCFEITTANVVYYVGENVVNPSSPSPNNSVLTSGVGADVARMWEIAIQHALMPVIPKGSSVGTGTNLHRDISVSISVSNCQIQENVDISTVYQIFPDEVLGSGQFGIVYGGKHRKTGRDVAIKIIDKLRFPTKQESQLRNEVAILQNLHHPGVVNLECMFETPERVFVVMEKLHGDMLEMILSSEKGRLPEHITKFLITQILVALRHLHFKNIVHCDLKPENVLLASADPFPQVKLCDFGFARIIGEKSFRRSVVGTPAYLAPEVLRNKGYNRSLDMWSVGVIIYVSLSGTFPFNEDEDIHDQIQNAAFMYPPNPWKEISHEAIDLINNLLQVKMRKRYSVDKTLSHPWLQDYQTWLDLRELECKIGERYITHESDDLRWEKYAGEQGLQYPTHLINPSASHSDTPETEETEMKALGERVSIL
Put plainly: Percentage PKD1 activity remaining in the presence of 25uM inhibitor.

Experiment [10] addresses T3, Serine/threonine-protein kinase 3 (Homo sapiens) (UniProt Q13188).
T3 sequence (whole entry): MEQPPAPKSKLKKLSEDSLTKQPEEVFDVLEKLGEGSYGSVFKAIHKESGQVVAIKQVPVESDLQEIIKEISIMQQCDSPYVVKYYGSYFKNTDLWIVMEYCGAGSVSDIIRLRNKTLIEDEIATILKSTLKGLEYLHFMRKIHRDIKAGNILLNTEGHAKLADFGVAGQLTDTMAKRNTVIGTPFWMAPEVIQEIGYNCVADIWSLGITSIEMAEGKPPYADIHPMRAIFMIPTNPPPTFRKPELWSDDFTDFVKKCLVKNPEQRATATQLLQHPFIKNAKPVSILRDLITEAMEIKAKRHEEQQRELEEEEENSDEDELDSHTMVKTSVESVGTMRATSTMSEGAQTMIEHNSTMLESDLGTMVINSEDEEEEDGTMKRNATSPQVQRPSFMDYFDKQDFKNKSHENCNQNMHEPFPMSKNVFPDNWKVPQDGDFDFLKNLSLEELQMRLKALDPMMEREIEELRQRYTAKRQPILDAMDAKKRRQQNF
Put plainly: Percentage MST2 activity remaining in the presence of 25uM inhibitor.

Experiment [11] addresses Mitogen-activated protein kinase 14 (Homo sapiens, UniProt Q16539). Put plainly: Percentage p38alpha activity remaining in the presence of 25uM inhibitor.
Experiment [12] addresses Rho-associated protein kinase 2 (Homo sapiens) (UniProt O75116). Put plainly: Percentage ROCK2 activity remaining in the presence of 25uM inhibitor.
Experiment [13] has as its target Maternal embryonic leucine zipper kinase (Homo sapiens) (UniProt Q14680). Put plainly: Percentage MELK activity remaining in the presence of 25uM inhibitor.
Experiment [14] addresses Serine/threonine-protein kinase pim-3 (Homo sapiens, UniProt Q86V86). Put plainly: Percentage PIM3 activity remaining in the presence of 25uM inhibitor. The note with it: filed as antagonist.
For experiment [15], the target named is Ribosomal protein S6 kinase beta-1 (Homo sapiens, UniProt P23443). Put plainly: Percentage S6K1 activity remaining in the presence of 25uM inhibitor.
The target of experiment [16] is Serine/threonine-protein kinase N2 (Homo sapiens) (UniProt Q16513). Put plainly: Percentage PRK2 activity remaining in the presence of 25uM inhibitor.
Serine/threonine-protein kinase N2 (Homo sapiens), sequence (Q16513 whole entry, looked up): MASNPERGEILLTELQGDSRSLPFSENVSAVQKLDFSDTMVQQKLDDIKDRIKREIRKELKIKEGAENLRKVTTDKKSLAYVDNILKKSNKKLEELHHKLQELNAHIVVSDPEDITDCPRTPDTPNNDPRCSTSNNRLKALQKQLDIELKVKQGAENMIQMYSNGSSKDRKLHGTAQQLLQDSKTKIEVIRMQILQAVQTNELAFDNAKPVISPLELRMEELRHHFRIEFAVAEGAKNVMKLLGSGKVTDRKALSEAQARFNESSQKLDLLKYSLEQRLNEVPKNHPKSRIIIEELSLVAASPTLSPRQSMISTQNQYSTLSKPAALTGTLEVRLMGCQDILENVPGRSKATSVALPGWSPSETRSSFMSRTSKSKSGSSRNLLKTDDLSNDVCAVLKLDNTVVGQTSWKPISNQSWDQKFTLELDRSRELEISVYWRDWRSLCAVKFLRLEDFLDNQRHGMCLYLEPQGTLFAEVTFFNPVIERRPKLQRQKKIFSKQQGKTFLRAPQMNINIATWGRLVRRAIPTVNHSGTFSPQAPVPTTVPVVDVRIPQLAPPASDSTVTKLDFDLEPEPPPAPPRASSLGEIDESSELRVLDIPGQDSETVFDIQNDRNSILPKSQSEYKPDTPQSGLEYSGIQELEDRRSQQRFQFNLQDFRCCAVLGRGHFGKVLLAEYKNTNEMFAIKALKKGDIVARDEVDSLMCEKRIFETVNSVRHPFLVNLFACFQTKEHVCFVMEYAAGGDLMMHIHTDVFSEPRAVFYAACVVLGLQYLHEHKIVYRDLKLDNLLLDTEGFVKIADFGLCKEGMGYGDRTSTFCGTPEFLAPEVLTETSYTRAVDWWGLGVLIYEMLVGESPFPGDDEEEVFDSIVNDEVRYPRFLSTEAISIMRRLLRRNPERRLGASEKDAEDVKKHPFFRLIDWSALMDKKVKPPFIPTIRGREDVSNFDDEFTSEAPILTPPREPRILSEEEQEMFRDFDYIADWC
Experiment [17] concerns the target Glycogen synthase kinase-3 beta (Homo sapiens, UniProt P49841). Put plainly: Percentage GSK3-beta activity remaining in the presence of 25uM inhibitor.

SRSF protein kinase 1 (Homo sapiens), sequence (Q96SB4 whole entry): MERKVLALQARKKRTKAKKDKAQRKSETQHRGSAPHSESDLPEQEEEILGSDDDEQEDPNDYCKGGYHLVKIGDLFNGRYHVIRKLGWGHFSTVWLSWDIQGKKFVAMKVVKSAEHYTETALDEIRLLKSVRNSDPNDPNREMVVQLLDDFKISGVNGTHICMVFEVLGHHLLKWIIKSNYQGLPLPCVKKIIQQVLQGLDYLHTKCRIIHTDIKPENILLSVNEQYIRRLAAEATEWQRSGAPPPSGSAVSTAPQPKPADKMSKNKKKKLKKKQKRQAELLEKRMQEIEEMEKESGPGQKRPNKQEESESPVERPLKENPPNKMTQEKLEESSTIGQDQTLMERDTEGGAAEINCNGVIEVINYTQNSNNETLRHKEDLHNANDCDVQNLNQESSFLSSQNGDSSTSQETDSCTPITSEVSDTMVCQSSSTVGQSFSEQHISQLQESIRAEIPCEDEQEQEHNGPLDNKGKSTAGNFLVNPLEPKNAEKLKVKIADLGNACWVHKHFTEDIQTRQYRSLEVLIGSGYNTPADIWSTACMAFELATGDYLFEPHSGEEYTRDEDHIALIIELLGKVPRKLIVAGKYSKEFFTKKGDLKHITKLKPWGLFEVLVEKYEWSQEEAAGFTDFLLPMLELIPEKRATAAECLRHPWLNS
Glycogen synthase kinase-3 beta, sequence (P49841 whole entry, looked up): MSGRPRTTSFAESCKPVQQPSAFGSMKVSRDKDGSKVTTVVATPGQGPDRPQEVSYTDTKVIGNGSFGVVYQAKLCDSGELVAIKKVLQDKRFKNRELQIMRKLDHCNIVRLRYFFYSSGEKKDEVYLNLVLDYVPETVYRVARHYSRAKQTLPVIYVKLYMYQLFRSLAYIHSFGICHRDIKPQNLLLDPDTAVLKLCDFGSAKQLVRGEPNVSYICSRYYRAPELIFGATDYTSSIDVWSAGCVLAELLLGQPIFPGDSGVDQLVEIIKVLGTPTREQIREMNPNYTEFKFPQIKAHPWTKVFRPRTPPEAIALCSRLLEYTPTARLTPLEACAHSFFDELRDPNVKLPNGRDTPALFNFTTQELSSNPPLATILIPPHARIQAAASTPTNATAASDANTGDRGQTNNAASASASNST
Mitogen-activated protein kinase 14, sequence (Q16539 whole entry): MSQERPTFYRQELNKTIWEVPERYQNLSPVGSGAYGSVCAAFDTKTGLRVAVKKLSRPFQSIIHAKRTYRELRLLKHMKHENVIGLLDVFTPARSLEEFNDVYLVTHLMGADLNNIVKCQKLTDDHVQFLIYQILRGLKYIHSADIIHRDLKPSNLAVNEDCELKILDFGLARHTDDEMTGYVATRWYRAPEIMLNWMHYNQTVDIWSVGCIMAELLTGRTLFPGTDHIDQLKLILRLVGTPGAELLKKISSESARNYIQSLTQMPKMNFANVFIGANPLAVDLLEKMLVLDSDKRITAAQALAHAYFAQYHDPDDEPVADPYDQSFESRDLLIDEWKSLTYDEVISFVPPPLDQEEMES
Rho-associated protein kinase 2 (Homo sapiens), sequence (O75116 whole entry, looked up): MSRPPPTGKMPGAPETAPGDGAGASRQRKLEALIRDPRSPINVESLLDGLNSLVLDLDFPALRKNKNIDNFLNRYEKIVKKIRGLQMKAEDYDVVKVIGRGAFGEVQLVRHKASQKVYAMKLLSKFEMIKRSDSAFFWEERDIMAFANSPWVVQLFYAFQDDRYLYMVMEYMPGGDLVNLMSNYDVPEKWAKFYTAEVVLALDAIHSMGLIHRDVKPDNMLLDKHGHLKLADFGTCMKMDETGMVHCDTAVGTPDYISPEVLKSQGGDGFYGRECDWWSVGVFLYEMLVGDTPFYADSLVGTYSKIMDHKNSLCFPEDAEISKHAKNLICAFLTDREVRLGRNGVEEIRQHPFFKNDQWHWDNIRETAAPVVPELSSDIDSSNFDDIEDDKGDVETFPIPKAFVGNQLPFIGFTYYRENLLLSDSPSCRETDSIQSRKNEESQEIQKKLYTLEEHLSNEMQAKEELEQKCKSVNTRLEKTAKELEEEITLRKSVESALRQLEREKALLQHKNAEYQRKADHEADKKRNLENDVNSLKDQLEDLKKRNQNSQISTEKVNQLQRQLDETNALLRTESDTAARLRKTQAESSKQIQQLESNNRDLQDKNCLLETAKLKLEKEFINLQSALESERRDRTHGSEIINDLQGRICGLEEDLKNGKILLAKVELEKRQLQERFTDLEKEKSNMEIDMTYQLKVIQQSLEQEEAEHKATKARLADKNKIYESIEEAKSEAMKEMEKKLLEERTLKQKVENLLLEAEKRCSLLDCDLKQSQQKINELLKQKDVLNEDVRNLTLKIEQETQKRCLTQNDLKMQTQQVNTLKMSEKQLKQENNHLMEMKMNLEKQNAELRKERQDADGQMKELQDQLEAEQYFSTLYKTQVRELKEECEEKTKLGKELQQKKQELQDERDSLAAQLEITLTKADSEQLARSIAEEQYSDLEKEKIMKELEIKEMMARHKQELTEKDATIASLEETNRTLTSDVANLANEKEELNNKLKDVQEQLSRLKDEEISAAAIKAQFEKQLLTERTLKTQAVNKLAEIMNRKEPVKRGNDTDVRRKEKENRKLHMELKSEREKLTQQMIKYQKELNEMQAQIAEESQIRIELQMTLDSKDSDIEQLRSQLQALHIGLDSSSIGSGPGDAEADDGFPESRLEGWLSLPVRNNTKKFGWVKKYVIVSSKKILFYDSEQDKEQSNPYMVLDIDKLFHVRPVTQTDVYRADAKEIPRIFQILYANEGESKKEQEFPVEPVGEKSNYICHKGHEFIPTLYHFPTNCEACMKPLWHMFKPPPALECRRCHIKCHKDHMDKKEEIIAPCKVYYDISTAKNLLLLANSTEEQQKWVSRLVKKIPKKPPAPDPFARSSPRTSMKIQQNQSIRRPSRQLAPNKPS

For `O=C(NCCCNc1nc(Nc2cccc(NC(=O)N3CCCC3)c2)ncc1I)c1cccs1`, the Activity in experiment [1] came to 92%; in experiment [2], 99%.

For the compound `COc1cc(OC)c(/C=C2/C(=O)Nc3ccccc32)c(OC)c1`, the Activity in [3] turned out to be 97%; in experiment [4], 86%; in experiment [5] it was 86%; in experiment [6], 94%; in experiment [7], 76%; in experiment [8] it was 70%. Also, the Activity was 62% in [9]; 70% in experiment [10]; 92% in experiment [11]; 78% in [12]; 75% in [13]; 41% in experiment [14]. Moreover, the Activity in [15] came out at 84%; in experiment [16], 87%; in experiment [17], 74%.

Consider `CN[C@@H]1C[C@H]2O[C@@](C)([C@@H]1OC)n1c3ccccc3c3c4c(c5c6ccccc6n2c5c31)C(=O)N[C@H]4O` (stereo in doubt), for which the Activity in experiment [1] was found to be 85%.

Take `NCCNS(=O)(=O)c1ccc(Cl)c2ccncc12`: the Activity stood at 101% in experiment [3]; 86% in [4]; 76% in experiment [5]; 86% in [6]; 78% in [7]; 92% in [8]. For the same compound, the Activity in experiment [9] is 60%; in [10], 91%; in experiment [11], 103%; in [12], 65%; in [13], 63%; in experiment [14], 28%. The Activity is 49% in experiment [15] (filed as antagonist), 47% in experiment [16] (filed as antagonist) and 75% in experiment [17].

Turning to `Cc1n[nH]c2ccc(-c3cncc(OC[C@@H](N)Cc4c[nH]c5ccccc45)c3)cc12`, the Activity in experiment [2] was determined as 92%.

(Values after ChEMBL document CHEMBL1150976, “The selectivity of protein kinase inhibitors: a further update” (Biochem J, 2007).)
